Source: patent US12195427B2, “MASP-2 inhibitors and methods of use” (priority 2018, dated 2025)

Tests used:
MASP-2 CCP2-SP = MASP-2 CCP2-SP (Homo sapiens (Human), UniProt O00187); experiment: MASP-2 co-crystallization, X-ray crystallography and structure analysis (H-bonds, van der Waals contacts); design: van der Waals contact distance, MASP-2 HIS 483 atom CD2 / van der Waals contact distance, MASP-2 HIS 483 atom NE2 / van der Waals contact distance, SER 654 C to compound atom / van der Waals contact distance, SER 654 O to compound atom / van der Waals contact distance, TRP 655 C to compound atom / van der Waals contact distance, MASP-2 GLY 528 atom CA / van der Waals contact distance TRP 655 atom CZ3 / van der Waals contact distance TRP 655 atom N / van der Waals contact distance TRP 655 atom CE3 / van der Waals contact distance GLY 656 atom C / van der Waals contact distance GLY 656 atom CA / van der Waals contact distance GLY 656 atom O / van der Waals contact distance, MASP-2 TYR 607 atom CD1 / van der Waals contact distance, MASP-2 PRO 606 atom O / d(C3,CA1) / d(CA1,N1)2 / d(H4,O1) / d(H4,O2) / d(O1,O2) / d(CA1,O2) / d(CA6,O1) / d(CA6,O2) / d(CA1,C5) / d(O2,H3) / d(N2,C2) / d(CA5,N2) / d(N2,C4) / d(N2,C6) / d(N2,CA3) / d(N2,O3) / d(O4,H2): unit not given beside the values;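 for Ligand-pharmacophore element distance, pharmacophore element C2: distance from averaged pharmacophore element to bound ligand; missing value means element absent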;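 for Ligand-pharmacophore element distance, pharmacophore element C3: distance from averaged pharmacophore element to bound ligand; missing value means element absent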;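 for Ligand-pharmacophore element distance, pharmacophore element C4: distance from averaged pharmacophore element to bound ligand; missing value means element absent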;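 for Ligand-pharmacophore element distance, pharmacophore element C5: distance from averaged pharmacophore element to bound ligand; missing value means element absent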
Sequence of MASP-2 CCP2-SP (O00187 445-686): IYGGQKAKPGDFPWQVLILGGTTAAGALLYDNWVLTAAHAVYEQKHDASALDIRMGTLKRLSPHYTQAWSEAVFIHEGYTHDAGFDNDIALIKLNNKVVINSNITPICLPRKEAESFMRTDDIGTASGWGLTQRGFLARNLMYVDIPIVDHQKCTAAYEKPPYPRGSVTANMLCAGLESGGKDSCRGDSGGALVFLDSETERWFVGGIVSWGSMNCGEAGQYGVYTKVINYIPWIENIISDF
Sequence of MASP-2 CCP2-SP (O00187 364-432 partner): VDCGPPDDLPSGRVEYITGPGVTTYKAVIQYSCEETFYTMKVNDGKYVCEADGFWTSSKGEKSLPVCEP
Outline: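 Human MASP-2 CCP2-SP (± 6His) expressed in E. coli and crystallized; crystals soaked in crystallization solution containing inhibitor, cryoprotected with 20% glycerol or frozen directly. Synchrotron data at 1.0 wavelength; molecular replacement from 1Q3X, partial refinement; one ligand pose analyzed; LigPlot+ contacts may include H-bonds.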

Lectin Pathway = Lectin Pathway Activation Assay in Human Serum (mannan-coated ELISA, C3c detection); assay type: biochemical; conditions: 1% human serum
Protocol: Microtiter ELISA plate was coated with mannan from Saccharomyces cerevisiae (Sigma-Aldrich, M7504) for overnight at 4° C. in coating buffer [15 mM Na2CO3, 35 mM NaHCO3].

[1] = Table A5-1 pharmacophore: distance between elements, S2/S1 region
[2] = Table A5-2 pharmacophore distance, S3/S4 region
[3] = Table A7-1, between pharmacophore elements of the bound compound
[4] = Table A8-6, nearest protein atom in cell to the left

**Q.** Which results are given for C[C@H](NC(=O)[C@H]1C[C@@H](c2ccccc2)CCN1)C(=O)NCc1ccc(C(=N)N)cc1 (stereo in doubt) [compound 1065]?
**A.** H-bond distance to MASP-2 ASP 627 atom OD1 (MASP-2 CCP2-SP; Table A1 (H-Bonds), ASP 627 OD1): 3.14; H-bond distance to MASP-2 ASP 627 atom OD2 (MASP-2 CCP2-SP; Table A1 (H-Bonds), ASP 627 OD2): 3.08; H-bond distance to MASP-2 GLY 656 atom N (MASP-2 CCP2-SP; Table A1 (H-Bonds), GLY 656 N): 3.31; H-bond distance to MASP-2 SER 654 atom O (MASP-2 CCP2-SP; Table A1 (H-Bonds), SER 654 O): 2.92; van der Waals contact distance, MASP-2 HIS 483 atom CD2 (MASP-2 CCP2-SP; Table A2-1): 3.67; van der Waals contact distance, MASP-2 amino acid atom to compound atom (MASP-2 CCP2-SP; Table A2-9, ARG 630, AA atoms CG, CZ): 3.55; van der Waals contact distance, SER 654 C to compound atom (MASP-2 CCP2-SP; Table A2-11): 3.78; van der Waals contact distance, VAL 653 CG1 to compound atom (MASP-2 CCP2-SP; Table A2-11): 3.6; van der Waals contact distance, TRP 655 CA to compound atom (MASP-2 CCP2-SP; Table A2-12): 3.46; van der Waals contact distance TRP 655 atom CE3 (MASP-2 CCP2-SP; Table A2-13, MASP-2 TRP 655 CE3, compound atom in line below): 3.6; Ligand-pharmacophore element distance, pharmacophore element C2 (MASP-2 CCP2-SP; Table A4-1, element C2): 0.11; Ligand-pharmacophore element distance, pharmacophore element C3 (MASP-2 CCP2-SP; Table A4-1, element C3): 0; Ligand-pharmacophore element distance, pharmacophore element C4 (MASP-2 CCP2-SP; Table A4-1, element C4): 0; Ligand-pharmacophore element distance, pharmacophore element C5 (MASP-2 CCP2-SP; Table A4-1, element C5): 0; Ligand-pharmacophore element distance, pharmacophore element C6 (MASP-2 CCP2-SP; Table A4-1, element C6): 0; Ligand-pharmacophore element distance, pharmacophore element C7 (MASP-2 CCP2-SP; Table A4-1, element C7): 0; Ligand-pharmacophore element distance, pharmacophore element CA1 (MASP-2 CCP2-SP; Table A4-1, element CA1): 0.88; Ligand-pharmacophore element distance, pharmacophore element CA2 (MASP-2 CCP2-SP; Table A4-1, element CA2): 0.1; Ligand-pharmacophore element distance, pharmacophore element CA3 (MASP-2 CCP2-SP; Table A4-1, element CA3): 0; Ligand-pharmacophore element distance, pharmacophore element CA4 (MASP-2 CCP2-SP; Table A4-1, element CA4): 0; Ligand-pharmacophore element distance, pharmacophore element CA5 (MASP-2 CCP2-SP; Table A4-1, element CA5): 0; Ligand-pharmacophore element distance, pharmacophore element CA6 (MASP-2 CCP2-SP; Table A4-1, element CA6): 0; d(CA1,N1) (MASP-2 CCP2-SP; [1]): 3.47; d(CA1,O1) (MASP-2 CCP2-SP; [1]): 4.32; d(CA1,O2) (MASP-2 CCP2-SP; [1]): 4.20; d(H4,O1) (MASP-2 CCP2-SP; [1]): 6.39; d(H4,O2) (MASP-2 CCP2-SP; [1]): 5.35; d(O1,O2) (MASP-2 CCP2-SP; [1]): 3.30; d(N2,C2) (MASP-2 CCP2-SP; [2]): 1.40; d(N2,CA2) (MASP-2 CCP2-SP; [2]): 5.75; d(O2,H3) (MASP-2 CCP2-SP; [2]): 4.40; d(O2,N2) (MASP-2 CCP2-SP; [2]): 2.83; a(CA1, O1, O2) (MASP-2 CCP2-SP; Table A6-1 pharmacophore angle): 110.77; a(O1, O2, H4) (MASP-2 CCP2-SP; Table A6-1 pharmacophore angle): 148.95; A(N1, CA1, O1) a) (MASP-2 CCP2-SP; Table A6-1 pharmacophore angle, all compounds with protonatable center N1 except Methyl-amino-pyridine): 165.45; a(O1, O2, H3) (MASP-2 CCP2-SP; Table A6-2 pharmacophore angle): 145.76; a(O1, O2, N2) (MASP-2 CCP2-SP; Table A6-2 pharmacophore angle): 144.81; a(O2, N2, C2) (MASP-2 CCP2-SP; Table A6-2 pharmacophore angle): 124.85; a(O2, N2, CA2) (MASP-2 CCP2-SP; Table A6-2 pharmacophore angle): 154.55; Pharmacophore torsion angle a(H4, O1, O2, H3) (MASP-2 CCP2-SP; [3]): 44.38; Pharmacophore torsion angle a(H4, O1, O2, N2) (MASP-2 CCP2-SP; [3]): 129.83; Pharmacophore torsion angle a(N1, CA1, O2, H4) (MASP-2 CCP2-SP; [3]): −89.34; Pharmacophore torsion angle a(O1, H4, O2, CA1) (MASP-2 CCP2-SP; [3]): −21.94; Pharmacophore torsion angle a(O1, O2, N2, C2) (MASP-2 CCP2-SP; [3]): 124.96; Pharmacophore torsion angle a(O1, O2, N2, CA2) (MASP-2 CCP2-SP; Table A7-2, between pharmacophore elements of the bound compound): 129.88; Pharmacophore protein distance to MET_658 (first MET_658 column) (MASP-2 CCP2-SP; Table A8-6, 6th residue column, nearest protein atom in cell to the left): 3.34; Pharmacophore protein distance to MET_658 (second MET_658 column) (MASP-2 CCP2-SP; Table A8-6, 9th residue column, nearest protein atom in cell to the left): 3.79; Pharmacophore protein distance to GLY_528 (MASP-2 CCP2-SP; [4]): 3.56; Pharmacophore protein distance to PHE_529 (MASP-2 CCP2-SP; [4]): 2.70; Pharmacophore protein distance to PRO_608 (MASP-2 CCP2-SP; [4]): 3.75; Pharmacophore protein distance to SER_611 (MASP-2 CCP2-SP; [4]): 2.57; Pharmacophore protein distance to TRP_655 (MASP-2 CCP2-SP; Table A8-6, pharmacophore elements C6, CA3, O3, H1, nearest protein atom in cell to the left): 3.87; IC50 (Lectin Pathway): < 50 nM
